Columns and labels:
[1] = tested on: HIV; assay: Anti-HIV activity of 3'-azidonucleosides in vitro (T-cells); type: cell-based; conditions: Human immunodeficiency virus 1; T-cells exposed to HIV, viable cell count; read-out: ED50 (the source's name)
[2] = tested on: HIV; assay: AZT/Acyclovir combinations vs. HIV in vitro (protection); type: cell-based
[3] = tested on: E. coli CN314; assay: In vitro antibacterial MIC and synergy studies against E. coli CN314; conditions: Escherichia coli
[4] = tested on: Salmonella typhimurium; assay: In vitro antibacterial activity (MIC), Salmonella typhimurium; type: cell-based; conditions: Salmonella enterica, Wellcotest sensitivity Test Agar + 7% lysed horse blood
[5] = tested on: Entero. aerogenes; assay: In vitro antibacterial activity (MIC), Entero. aerogenes; type: cell-based, Enterobacter aerogenes; conditions: Klebsiella aerogenes; Wellcotest sensitivity Test Agar + 7% lysed horse blood
[6] = tested on: Citro. freundii; assay: In vitro antibacterial activity (MIC), Citro. freundii; type: cell-based; conditions: Citrobacter freundii; Wellcotest sensitivity Test Agar + 7% lysed horse blood
[7] = tested on: Friend Leukemia Virus (FLV); assay: Anti-Friend Leukemia Virus plaque inhibition in FG-10 cells; type: cell-based; conditions: dipyridamole 10 μM, dilazep 5 μM, each alone

Row | SMILES | MIC [4] | MIC [5] | MIC [6] | MIC [3] | also measured
1 | [N-]=[N+]=N[C@H]1C[C@H](n2ccc(N)nc2=O)O[C@@H]1CO [3'-Azido-2',3'-dideoxycytidine] | – | – | – | – | EC50 [1]: 10 µM
2 | [N-]=[N+]=N[C@H]1C[C@H](n2cc(Br)c(N)nc2=O)O[C@@H]1CO [3'-Azido-5-bromo-2',3'-dideoxycytidine] | – | – | – | – | EC50 [1]: 5 µM
3 | [N-]=[N+]=N[C@H]1C[C@H](n2cc(/C=C/C(=O)O)c(=O)[nH]c2=O)O[C@@H]1CO [(E)-3-[1-(3'-Azido-2',3'-dideoxy-β-D-erythro-pentofuranosyl)-1,2,3,4-tetrahydro-2,4-dioxo-5-pyrimidinyl]-2-propenoic Acid] | – | – | – | – | EC50 [1]: 100 µM
4 | Nc1nc2c(ncn2COCCO)c(=O)[nH]1 [ACV, 9-(2-hydroxyethoxymethyl)guanine] | – | – | – | – | potentiation of the antiviral activity of AZT [2]: about 3 -fold; activity alone vs. HIV ([2]; ACV alone): little activity; inhibition at 16 µg/mL ([2]; Human immunodeficiency virus 1, T-cell, ACV alone, 16 μg/ml (highest tested)): < 30%
5 | O=C(N[C@H](CO)[C@H](O)c1ccc([N+](=O)[O-])cc1)C(Cl)Cl [Chloramphenicol] | – | – | – | 3.1 µg/mL | –
6 | CCC[C@@H]1C[C@@H](C(=O)N[C@@H]([C@H]2O[C@H](SC)[C@H](O)[C@@H](O)[C@H]2O)[C@H](C)Cl)N(C)C1 [Clindamycin] | – | – | – | 100 µg/mL | –
7 | Cc1cn([C@H]2C[C@H](N=[N+]=[N-])[C@@H](CO)O2)c(=O)[nH]c1=S [Compound 1, 3'-Azido-3'-deoxy-4-thiothymidine] | < 0.1 µg/mL | < 0.1 µg/mL | 10 µg/mL | – | –
8 | [N-]=[N+]=N[C@H]1C[C@H](n2cc(Br)c(=O)[nH]c2=O)O[C@@H]1CO [Compound 8, 3'-Azido-5-bromo-2',3'-dideoxyuridine] | > 100 µg/mL | > 100 µg/mL | > 100 µg/mL | – | EC50 [1]: 5 µM
9 | CC[C@H]1OC(=O)[C@H](C)[C@@H](O[C@H]2C[C@@](C)(OC)[C@@H](O)[C@H](C)O2)[C@H](C)[C@@H](O[C@@H]2O[C@H](C)C[C@H](N(C)C)[C@H]2O)[C@](C)(O)C[C@@H](C)C(=O)[C@H](C)[C@@H](O)[C@]1(C)O [Erythromycin] | – | – | – | 25 µg/mL | –
10 | CC(=O)O[C@H]1C[C@@]2(C)[C@@H](C[C@@H](O)[C@H]3[C@@]4(C)CC[C@@H](O)[C@@H](C)[C@@H]4CC[C@@]32C)/C1=C(\CCC=C(C)C)C(=O)O [Fusidic acid] | – | – | – | 1000 µg/mL | –
11 | CO[C@H]1/C=C/O[C@@]2(C)Oc3c(C)c(O)c4c(O)c(c(/C=N/N5CCN(C)CC5)c(O)c4c3C2=O)NC(=O)/C(C)=C\C=C\[C@H](C)[C@H](O)[C@@H](C)[C@@H](O)[C@@H](C)[C@H](OC(C)=O)[C@@H]1C [Rifampicin] | – | – | – | 6.2 µg/mL | –
12 | Cc1cc(C)nc(NS(=O)(=O)c2ccc(N)cc2)n1 [Sulphadimidine] | – | – | – | 32 µg/mL | –
13 | NC[C@H]1O[C@H](O[C@H]2[C@H](O)[C@@H](O[C@H]3O[C@H](CO)[C@@H](O)[C@H](N)[C@H]3O)[C@H](N)C[C@@H]2N)[C@H](N)C[C@@H]1O [Tobramycin] | – | – | – | 0.4 µg/mL | –
14 | COc1cc(Cc2cnc(N)nc2N)cc(OC)c1OC [Trimethoprim, 2,4-diamino-5-(3',4',5'-trimethoxybenzyl) pyrimidine, reference compound] | 0.5 µg/mL | 0.5 µg/mL | 0.5 µg/mL | 0.125 µg/mL | –
15 | COc1cc(C(=O)OCCCN2CCCN(CCCOC(=O)c3cc(OC)c(OC)c(OC)c3)CC2)cc(OC)c1OC [dilazep] | – | – | – | – | observed antiviral effect alone [7]: Neither dipyridamole (10 μM) nor dilazep (5 μM) alone had any observed antiviral effect
16 | OCCN(CCO)c1nc(N2CCCCC2)c2nc(N(CCO)CCO)nc(N3CCCCC3)c2n1 [dipyridamole] | – | – | – | – | observed antiviral effect alone [7]: Neither dipyridamole (10 μM) nor dilazep (5 μM) alone had any observed antiviral effect

Second part, led by results:

Row | MIC [4] | MIC [5] | MIC [6] | SMILES | MIC [3] | also measured
17 | 10 µg/mL | 10 µg/mL | 10 µg/mL | CC(=O)OC[C@H]1O[C@@H](n2cc(C)c(=S)[nH]c2=O)C[C@@H]1N=[N+]=[N-] [Compound 2, 3'-Azido-3'-deoxy-5'-O-acetyl-4-thiothymidine] | – | –
18 | 10 µg/mL | > 100 µg/mL | 10 µg/mL | Cc1cn([C@H]2C[C@H](N=[N+]=[N-])[C@@H](CO)O2)c(=S)[nH]c1=O [Compound 3, 3'-Azido-3'-deoxy-2-deoxy-2-thiothymidine] | – | –
19 | < 0.1 µg/mL | > 100 µg/mL | < 0.1 µg/mL | CC(=O)OC[C@H]1O[C@@H](n2cc(C)c(=O)n(C(=O)c3ccccc3)c2=O)C[C@@H]1N=[N+]=[N-] [Compound 4, 5'-Acetyl-3'-azido-3-benzoyl-3'-deoxythymidine] | – | –
20 | > 100 µg/mL | 100 µg/mL | 10 µg/mL | CC(=O)OC[C@H]1O[C@@H](n2cc(C)c(-n3cncn3)nc2=O)C[C@@H]1N=[N+]=[N-] [Compound 5, 1-(5'-O-Acetyl-3'-azido-2',3'-deoxy-β-D-erythro-pentofuranosyl)-5-methyl-4-(1,2,4-triazol-1-yl)-2(1H)-pyrimidinone] | – | –
21 | 10 µg/mL | 10 µg/mL | 10 µg/mL | Cc1cn([C@H]2C[C@H](N=[N+]=[N-])[C@@H](CO)O2)c(OCc2ccccc2)nc1=O [Compound 6, 1-(3'-Azido-2',3'-dideoxy-β-D-erythro-pentofuranosyl)-2-(benzyloxo)-5-methyl-4-(1H)-pyrimidinone] | – | –
22 | 10 µg/mL | 10 µg/mL | 10 µg/mL | COc1nc(=O)c(C)cn1[C@H]1C[C@H](N=[N+]=[N-])[C@@H](CO)O1 [Compound 7, 3'-Azido-3'-deoxy-2-methoxythymidine] | – | –

Reference: patent publication US5064946A, “Therapeutic nucleosides” (priority 1987, dated 1991)
